# US20250388542A1, “ANALOGUES OF PENTAMIDINE AND USES THEREFOR” (Auransa Inc., priority 2018, published 2025)
# What was measured:
# [1] = system: Hep3B-luc; experiment: CellTiter-Glo cell viability, liver cell lines, 8 days; format: cell-based; conditions: Hep 3B-Luc, 192 h, full growth media
# Method: The objective of this study is to investigate the effect of Compound 1 on cell viability of various types of liver cancer. Ten (10) different liver cancer cell lines were employed in the study. Each liver cell line shown in Table 4 was treated with Compound 1, pentamidine, as reference control, a standard of care (cisplatin) and culture medium contains 0.2% [v/v] DMSO vehicle control and IC50 values were obtained as described above. The raw data values from the CellTiter-Glo™ cell viability assay expressed in relative luminescence units were normalized to the vehicle for each individual plate, and any reduction in luminescence indicated a decrease in viability (%). The data was analyzed in GraphPad PRISM using a non-linear sigmoidal plot with variable slope (asymmetric four-point linear regression), and an IC50 value for each compound was generated. The experiment tested pentamidine, compound 1, and standard-of-care control Cisplatin in full growth media for 8 days. Cells were initially treated with the test compounds on Day 0, and the cells were then replenished with fresh compound dilutions on Day 3. Pentamidine, Compound 1, and cisplatin were tested at 9 concentration points; 100, 33.33, 11.11, 3.70, 1.23, 0.41, 0.14, 0.05, and 0.02 μM (final DMSO concentration=0.5%). In particular, the IC50 values of pentamidine and Compound 1 were 0.8 and 0.6 μM in Hep3B-luc, respectively.
# The experiment tested pentamidine, Compound 1, and standard of care control, cisplatin, in full growth media for 8 days. Hep-3b cells were initially treated with the test compounds on Day 0, and the cells were then replenished with fresh compound dilutions on Day 3. […] The raw data values from the CellTiter-Glo™ cell viability assay expressed in relative luminescence units were normalized to the vehicle for each individual plate, and any reduction in luminescence indicated a decrease in viability (%). The data was analyzed in GraphPad PRISM using a non-linear sigmoidal plot with variable slope (asymmetric four-point linear regression), and an IC50 value for each compound was generated. […]
# [2] = system: DU4475; experiment: CellTiter-Glo cytotoxicity, cancer cell line panel / breast cancer study; format: cell-based; conditions: Homo sapiens, DU-4475; DU4475, Breast carcinoma
# Method: (§1) The objective of this study is to investigate potential cell killing effect of Compounds 1-15 on 3 cancer cell lines. 50% inhibition concentration (IC50) was determined for these compounds in various cancer cell lines using CellTiter-Glo™ luminescent cell viability assay at different compound concentrations. Each cell line (e.g., NCI-H209; NCI-H69; and SW1271) was treated with Compounds 1-15 and culture medium contains 0.2% [v/v] DMSO vehicle control. All the cells were cultured in the media supplemented with 10-20% fetal bovine serum at 37° C., 5% CO2 and 95% humidity.
# (§2) The objective of this study is to investigate the effect of Compound 1 on cytotoxicity against 61 different types of cancer cell lines. IC50 were values were obtained using CellTiter-Glo™ as described above. Each cell line shown in Table 3 was treated with Compound 1, a standard chemotherapy drug, cisplatin, as reference control and culture medium contains 0.2% [v/v] DMSO vehicle control. All cancer cell lines were cultured in media supplemented with 10-20% fetal bovine serum at 37° C., 5% CO2 and 95% humidity.
# (§3) The objective of this study is to investigate the effect of Compound 1 on cell viability of various types of breast cancer. Four different breast cancer cell lines were employed in the study. Each cell line shown in Table 5 was treated with Compound 1 and standard of care (cisplatin) and culture medium contains 0.2% [v/v] DMSO vehicle control and IC50 values were obtained as described above. The raw data values from the CellTiter-Glo™ cell viability assay expressed in relative luminescence units were normalized to the vehicle for each individual plate, and any reduction in luminescence indicated a decrease in viability (%). The data was analyzed in GraphPad PRISM using a non-linear sigmoidal plot with variable slope (asymmetric four-point linear regression), and an IC50 value for each compound was generated. The experiment tested pentamidine, compound 1, and standard-of-care control Cisplatin in full growth media for 8 days. Cells were initially treated with the test compounds on Day 0, and the cells were then replenished with fresh compound dilutions on Day 3. Pentamidine, Compound 1, and cisplatin were tested at 9 concentration points; 100, 33.33, 11.11, 3.70, 1.23, 0.41, 0.14, 0.05, and 0.02 μM (final DMSO concentration=0.5%).
# [3] = system: MCF7; experiment: as above; format: cell-based; conditions: Homo sapiens; MCF7, Invasive ductal carcinoma
# Method: as §1, §2, §3
# [4] = system: ZR-75-1; experiment: as above; format: cell-based; conditions: Homo sapiens; ZR-75-1, Invasive ductal carcinoma
# Method: as §1, §2, §3
# [5] = system: HCC1954; experiment: as above; format: cell-based; conditions: Homo sapiens; HCC1954, Ductal breast carcinoma
# Method: as §1, §2, §3
# [6] = Tolerance in non-tumor bearing BALB/c nude mice; format: in vivo
# Method: The objective of this research is to assess Compound 1 tolerance in non-tumor bearing mice in BALB/c nude mice. Compound 1 exposure in plasma, liver, kidney, colon and bladder as well as serum-derived blood chemistries were tested.
# Thirty-six (36) female BALB/c nude mice of age 6-8 weeks having body weight of around 19-23 g were kept in individual ventilation cages at constant temperature (20˜26° C.) and humidity (40-70%) with 3 animals per cage. Animals had free access to irradiation sterilized dry granule food and sterile drinking water during the entire study period.
# After grouping, the animals were checked daily for morbidity and mortality. At the time of routine monitoring, the animals were measured for any effects on behavior such as mobility, food and water consumption, body weight gain/loss. Body weights were measured daily. Death and other clinical signs were recorded.
# Animals from each group were tested and samples collected at two different time points for blood chemistry tests as well as compound concentration in plasma, kidney, liver, colon and bladder. The first sampling was performed right before the last dose (0 h) on Day 21; and the second sampling was performed 1 hour after the last dose (1 h) on day 21. Detailed descriptions for sampling methods are as follows: […]
smiles,measurement,setting,value
"N=C(N)c1ccc(OCCCCCOc2ccc(C(=N)N)nc2)cc1 [Compound 1, 5-(5-(4-carbamimidoylphenoxy)pentyloxy)picolinimidamide]",IC50,[1],600 nM
same,IC50,[2],240 nM
same,IC50,[3],930 nM
same,IC50,[4],1320 nM
same,IC50,[5],2710 nM
same,"tolerability, body weight loss","[6]; 5 mg/kg QD, 10 mg/kg QD, 10 mg/kg Q2D and 20 mg/kg QD, PO, 21 days",well tolerated with no obvious body weight loss
same,body weights compared with vehicle control group,"[6]; 40 mg/kg QD PO, day 20 and 21",lower in a statistically significant manner at day 20 and 21
